Experimental data published in US7649091B2, “Orally bioavailable low molecular weight metalloporphyrins as antioxidants” (Eukarion, Inc., priority 2003, dated 2010).
Where “and” joins values, the source holds several entries; their conditions need not be identical. Identical values can stand only once.

Legend:
Assay type in all cases: in vivo, Balb/c male mice
[1] = Animal bioavailability of Compound 3, oral route experiment (gavage): plasma and organ levels by LC/MS; conditions: for Brain: Oral
Procedure: (§1) Twenty 8-week-old Balb/c male mice (Charles River, US) were used in all experiments. Mice were kept at a temperature of 22±3° C. and provided with a standard diet and water.
(§2) For i.v. experiment mice received standard food before and during the experiment. For oral route, mice received no food 3 h before the start of the experiment and no food after.
Animals received by gavage a 0.1 mL of a solution of Compound 3 3 mg/mL in mannitol 5% (previously sterilized by filtration onto Acrodisc® syringe filter […] HT Tuffryn® membrane). Two animals were killed 0.5 h after gavage, two animals were killed 1 h after gavage, two animals were killed 2 h after gavage and two animals were killed 4 h after gavage.
(§3) At the time of sacrifice, mice were bled by heart puncture. Then organs were removed for biochemical studies (brain, kidney, liver and lung).
Red blood cells and plasma were separated by addition of heparine (15 μL) and centrifugation (2000 rpm, 5 min). Then 1.5 mL of HPLC mobil phase (Ammonium acetate 3 mM, acetonitrile, methanol, formic acid; 1/1/1/0.07 (v/v) at pH=3) were added to 40 μL of plasma and the mixture was centrifugated (2000 rpm, 5 min). The liquid layer (50 μL) was then analysed by LC/MS (MRM procedure, Column PARTISIL 5 ODS-3 RAC II, Cat. no. 4222-225).
Organs were washed with 5 ml of distillated water and dried with blotting paper. Volumes of organs were measured by addition of the organ into one half full of water graduated test tube. Organs were dried a second time with blotting paper and then weighed. A volume of mobil phase (in mL) corresponding to 6 times of the organ weigh (in g) was added to the organ. The mixture was crushed mechanically (with JANKE & KUNKEL, IKA Labortechnik ULTRA-TURRAX T25; 24000 rpm, 1 min), sonicated 30 min and centrifugated 20 min (2000 rpm). To this mixture, 1 mL of the liquid layer was removed and filtrated with Acrodisc CRPTFE® syringe Filter in order to obtain a clear solution suitable for LC/MS analysis.

[2] = Animal bioavailability of Compound 3, i.v. experiment: plasma and organ levels by LC/MS; conditions: IV, 82 min
[3] = as above; conditions: IV, 238 min
Procedure: as §1, §2
0.1 mL of a solution of Compound 3, 3 mg/mL in mannitol 5% (previously sterilized by filtration onto Acrodisc® syringe filter 0.2 μm HT Tuffryn® membrane) was injected in the tail vein. Two animals were killed 0.5 h after injection, two animals were killed 1 h after injection, two animals were killed 2 h after injection and two animals were killed 4 h after injection.
as §3
Red blood cells and plasma were separated by addition of heparine (15 μL) and centrifugation (2000 rpm, 5 min). […] The liquid layer (50 μL) was then analysed by LC/MS (MRM procedure, Column PARTISIL 5 ODS-3 RAC II, Cat. no. 4222-225).
Organs were washed with 5 ml of distillated water and dried with blotting paper. Volumes of organs were measured by addition of the organ into one half full of water graduated test tube. […]

[4] = 0.1 mL of 3 mg/mL in mannitol 5%, individual mouse
[5] = third line = mean of the two mice

For “{[{(Porphine-5,15-diyl)bis[cyclopropyl-diyl]}](2-)-N^21,N^22,N^23,N^24}manganese(III)acetate [Compound 3]”, the “Brain, oral level as percent of IV level” value ([1]; Oral 70 min mean relative to IV 82 min mean (in parentheses)) was “(112%)”, the “Brain, oral level as percent of IV level” value ([1]; Oral 234 min mean relative to IV 238 min mean (in parentheses)) was “(10%)” and the Brain ([1]; 70 min, 0.1 mL of 3 mg/mL in mannitol 5% by gavage, individual mouse) was 88 ng/g and 24 ng/g. The Brain ([1]; 70 min, third line = mean of the two mice) was 56 ng/g, the Brain ([1]; 234 min, 0.1 mL of 3 mg/mL in mannitol 5% by gavage, individual mouse) was 8 ng/g and 9 ng/g and the Brain ([1]; 234 min, third line = mean of the two mice) was 9 ng/g. The Lung ([1]; mouse, in vivo, po) was 67 ng/g, the Brain [2, 4] was 25 ng/g and 75 ng/g and the Brain [2, 5] was 50 ng/g. For the same substance, the Brain [3, 4] was 89 ng/g and 91 ng/g and the Brain [3, 5] was 90 ng/g.
